Data on 61 compounds can be found in patent US8329689B2 (priority 2006, dated 2012).

Structures can show the parent of a compound that is named as a salt.

Test system in one data set: not listed separately
In words: in vitro. As to conditions: human.
`CCOC(=O)c1c(CN(C)C)n(C)c2cc(-c3cccnc3)c3c(c12)CN(C)CO3` [1.2.5(1c), hydrochloride] had a CC50 of 78 µM.

`CCOC(=O)c1c(CN(C)C)n(C)c2cc(C#N)c3c(c12)CN(C)CO3` [1.2(29)] came in with a CC50 of more than 100 µM.

As to `CCOC(=O)c1c(CN(C)C)n(C)c2cc(-c3ccccc3)c(O)c(Cn3ccnc3)c12.Cl.Cl` [1.1.3(7)], the CC50 was more than 100 µM.

Take `CCOC(=O)c1c(CSc2ccccc2)n(C)c2cc(C#N)c(O)c(CN(C)C)c12` [1.1(15)]: the CC50 was more than 100 µM.

`CCOC(=O)c1c(C[S+]([O-])c2ccccc2)n(C)c2cc(-c3cccnc3)c(O)c(CN(C)C)c12.Cl.Cl` (stereo not drawn) [1.1.2(42)]: the CC50 is more than 100 µM.

Take `CCOC(=O)c1c(CN2CCCC2)n(C)c2cc(-c3cccnc3)c(O)c(CN(C)C)c12` [1.1.5(5c), ethyl 4-((dimethylamino)methyl)-5-hydroxy-1-methyl-6-(pyridin-3-yl)-2-(pyrrolidin-1-ylmethyl)-1H-indole-3-carboxylate hydrochloride]: the CC50 is more than 100 µM.

The next data set has as its system virus of hepatitis C strain JFH-1 (genotype 2a). In words: microbe, parasite or virus in culture. As to conditions: HCV. Format: cell-based.
Consider `CCOC(=O)c1c(CN(C)C)n(C)c2cc(-c3cccnc3)c3c(c12)CN(C)CO3` [1.2.5(1c), hydrochloride], for which the “Therapeutic index SI50 = TC50/IC50” value is 13.

`CCOC(=O)c1c(CN(C)C)n(C)c2cc(-c3ccccc3)c(O)c(Cn3ccnc3)c12.Cl.Cl` [1.1.3(7)]: the “Therapeutic index SI50 = TC50/IC50” value is more than 1.4.

Turning to `CCOC(=O)c1c(CSc2ccccc2)n(C)c2cc(C#N)c(O)c(CN(C)C)c12` [1.1(15)], the “Therapeutic index SI50 = TC50/IC50” value is more than 4.

`CCOC(=O)c1c(C[S+]([O-])c2ccccc2)n(C)c2cc(-c3cccnc3)c(O)c(CN(C)C)c12.Cl.Cl` (stereo not drawn) [1.1.2(42)]: the “Therapeutic index SI50 = TC50/IC50” value is listed as more than 5.

As for `CCOC(=O)c1c(CN2CCCC2)n(C)c2cc(-c3cccnc3)c(O)c(CN(C)C)c12` [1.1.5(5c), ethyl 4-((dimethylamino)methyl)-5-hydroxy-1-methyl-6-(pyridin-3-yl)-2-(pyrrolidin-1-ylmethyl)-1H-indole-3-carboxylate hydrochloride], the “Therapeutic index SI50 = TC50/IC50” value is recorded as more than 20.

Still in this data set, the particulars now being: Hepatitis C virus, GETYPE2A, Huh-7.5.1; Huh7.5.1 cells, HCV JFH-1, 72 hours incubation; read-out: IC50 (IC50^HCV, antiviral activity).
Turning to `CCOC(=O)c1c(CN(C)C)n(C)c2cc(-c3cccnc3)c3c(c12)CN(C)CO3` [1.2.5(1c), hydrochloride], the IC50 worked out at 6 µM.

Staying with this data set, now noted: Hepatitis C virus, Huh-7.5.1; Huh7.5.1 cells, HCV JFH-1, 72 hours incubation; read-out: IC50 (IC50^HCV, antiviral activity).
For `CCOC(=O)c1c(CN(C)C)n(C)c2cc(C#N)c3c(c12)CN(C)CO3` [1.2(29)], the IC50 is more than 100 µM.

With `CCOC(=O)c1c(CN(C)C)n(C)c2cc(-c3ccccc3)c(O)c(Cn3ccnc3)c12.Cl.Cl` [1.1.3(7)], the IC50 amounted to 72 µM.

Take `CCOC(=O)c1c(CSc2ccccc2)n(C)c2cc(C#N)c(O)c(CN(C)C)c12` [1.1(15)]: the concentration for half-maximal inhibition (IC50) was found to be 28 µM.

Regarding `CCOC(=O)c1c(C[S+]([O-])c2ccccc2)n(C)c2cc(-c3cccnc3)c(O)c(CN(C)C)c12.Cl.Cl` (stereo not drawn) [1.1.2(42)], the IC50 is 18 µM.

`CCOC(=O)c1c(CN2CCCC2)n(C)c2cc(-c3cccnc3)c(O)c(CN(C)C)c12` [1.1.5(5c), ethyl 4-((dimethylamino)methyl)-5-hydroxy-1-methyl-6-(pyridin-3-yl)-2-(pyrrolidin-1-ylmethyl)-1H-indole-3-carboxylate hydrochloride]: the IC50 was less than 5 µM.

The test system of the next data set is virus influenza A. In words: microbe, parasite or virus in culture. Format: cell-based. The arrangement: dose or concentration left out as unconfirmed. The conditions noted are these: Influenza A virus, MDCK, dilution of virus 10^-3, read-out: % of inhibition of influenza A virus reproduction.
Take `CCOC(=O)c1c(CSc2ccccc2)n(C)c2cc(Br)c3c(c12)CN(C)CO3` [1.2(38)]: the inhibition worked out at 100%.

Turning to `CCOC(=O)c1c(CN2CCN(C)CC2)n(Cc2ccccc2)c2cc(Br)c3c(c12)CN(C)CO3` [1.2(6)], the inhibition was found to be 92%.

As for `CCOC(=O)c1c(CSc2ccccc2)n(C)c2cc(-c3ccc(OC)nc3)c(O)c(CN(C)C)c12` [1.2.1(8)], the inhibition is 81%.

As for `CCOC(=O)c1c(CSc2ccccc2)n(C)c2cc(Br)c3c(c12)CN(C)C(c1ccccc1)O3` (stereo not drawn) [1.2(39)], the inhibition is 62%.

Turning to `CCOC(=O)c1c(CSc2ccccc2)n(C)c2cc(-c3cncnc3)c(O)c(CN(C)C)c12` [1.1.1(7), ethyl 4-((dimethylamino)methyl)-5-hydroxy-1-methyl-2-(phenylthiomethyl)-6-(pyrimidin-5-yl)-1H-indole-3-carboxylate], the inhibition is 62%.

As to `CCOC(=O)c1c(CSc2ccccc2)n(C)c2cc(-c3cc4ccccc4[nH]3)c(O)c(CN(C)C)c12` [1.1.1(4)], the inhibition was determined as 66%.

Regarding `CCOC(=O)c1c(CS(=O)(=O)c2ccccc2)n(C)c2cc(Br)c3c(c12)CN(C)CO3` [1.2(42)], the inhibition amounted to 88%.

Regarding `CCOC(=O)c1c(CSc2ccc(Cl)cc2)n(C)c2cc(Br)c3c(c12)CN(C)CO3` [1.2(49)], the inhibition came to 90%.

In the case of `CCOC(=O)c1c(CN(C)C)n(-c2ccccc2)c2ccc3c(c12)CN(C)CO3` [1.2(11)], the inhibition is 77%.

In the case of `CCOC(=O)c1c(CN2CCCCC2)n(Cc2ccccc2)c2cc(Br)c3c(c12)CN(C)CO3` [1.2(7)], the inhibition was 100%.

For `CCOC(=O)c1c(CSc2ccccc2)n(C)c2cc(-c3cccc(N(C)C)c3)c(O)c(CN(C)C)c12` [1.2.1(3)], the inhibition was found to be 77%.

For the compound `CCOC(=O)c1c(CS(=O)(=O)c2ccc(Cl)cc2)n(C)c2cc(Br)c3c(c12)CN(C)CO3` [1.2(43)], the inhibition is 77%.

As to `CCOC(=O)c1c(CSc2ccccc2)n(C)c2cc(-c3cc4ccccc4o3)c(O)c(CN(C)C)c12` [1.1.1(3)], the inhibition was determined as 52%.

Take `CCOC(=O)c1c(CSc2ccccc2)n(C)c2cc(C#N)c3c(c12)CN(C)CO3` [1.2(27)]: the inhibition is less than 50%.

On to `CCOC(=O)c1c(CSc2ccccc2)n(C)c2cc(-c3cncnc3)c3c(c12)CN(C)CO3` [1.2.2(7)], for which the inhibition was found to be 88%.

On to `CCOC(=O)c1c(CSc2ccccc2)n(C)c2cc(-c3cccnc3)c3c(c12)CN(C)CO3` [1.2.2(8)], for which the inhibition is 100%.

`CCOC(=O)c1c(CSc2cc(C)ccc2C#N)n(C)c2cc(Br)c3c(c12)CN(C)CO3` [1.2(36)]: the inhibition was less than 50%.

Consider `CCOC(=O)c1c(CNc2ccccc2)n(C)c2cc(-c3ccccc3)c3c(c12)CN(C)CO3` [1.2.3(7)], for which the inhibition is 90%.

For the compound `CCOC(=O)c1c(CN2CCC(C)CC2)n(Cc2ccccc2)c2cc(Br)c3c(c12)CN(C)CO3` [1.2(12)], the inhibition was 85%.

With `CCOC(=O)c1c(CSc2ccccc2)n(C)c2cc(C#N)c(O)c(CN3CCCC(CO)C3)c12` (stereo not drawn) [1.1(11)], the inhibition was less than 50%.

On to `CCOC(=O)c1c(CSc2ccccc2)n(C)c2cc(-c3ccccc3)c(O)c(CN(C)C)c12` [1.2.1(1)], for which the inhibition was determined as 96%.

With `CCOC(=O)c1c(CSc2ccccc2)n(C2CCCCC2)c2cc(Br)c3c(c12)CN(C)CO3` [1.2(41)], the inhibition is 89%.

`CCOC(=O)c1c(CN2CCN(c3ccccc3)CC2)n(C2CCCCC2)c2cc(Br)c3c(c12)CN(C)CO3` [1.2(9)]: the inhibition turned out to be 62%.

Turning to `CCOC(=O)c1c(CN(C)CCO)n(C)c2cc(Br)c3c(c12)CN(C)CO3` [1.2(16)], the inhibition turned out to be 90%.

On to `CCOC(=O)c1c(CSc2ccccc2)n(C)c2cc(-c3ccncc3)c3c(c12)CN(C)CO3` [1.2.2(5)], for which the inhibition came out at 100%.

As to `CCOC(=O)c1c(CSc2ccccc2)n(C)c2cc(-c3cccnc3)c(O)c(CN(C)C)c12` [1.2.1(5)], the inhibition is 100%.

Turning to `CCOC(=O)c1c(CSc2ccccc2)n(C)c2cc(-c3cccnc3)c(O)c(CN3CCCC(CO)C3)c12` (stereo not drawn) [1.2.1(23)], the inhibition was 95%.

Turning to `CCOC(=O)c1c(COc2ccccc2)n(C)c2cc(-c3cccnc3)c(O)c(CN(C)C)c12` [1.2.1(29)], the inhibition amounted to 88%.

For `CCOC(=O)c1c(CNc2ccccc2)n(C)c2cc(-c3ccncc3)c3c(c12)CN(C)CO3` [1.2.3(8)], the inhibition worked out at 100%.

On to `CCCCC1Oc2c(Br)cc3c(c2CN1C)c(C(=O)OCC)c(CSc1ccccc1)n3C` (stereo not drawn) [1.2(37)], for which the inhibition came out at 77%.

As for `CCOC(=O)c1c(CSc2ccccc2)n(C)c2cc(Br)c3c(c12)CN(Cc1ccccc1)CO3` [1.2(35)], the inhibition came to 98%.

With `CCOC(=O)c1c(CN2CCN(CCO)CC2)n(C)c2cc(Br)c3c(c12)CN(C)CO3` [1.2(14)], the inhibition was determined as 95%.

As for `CCOC(=O)c1c(CSc2ccccc2)n(C)c2cc(-c3cn[nH]c3)c(O)c(CN(C)C)c12` [1.1.1(2)], the inhibition is 63%.

As for `CCOC(=O)c1c(CNc2ccncc2)n(C)c2cc(Br)c3c(c12)CN(C)CO3` [1.2(18)], the inhibition came to 100%.

As to `CCOC(=O)c1c(CNc2ccc(C)cc2)n(C)c2cc(Br)c3c(c12)CN(C)CO3` [1.2(26)], the inhibition came to 100%.

As for `CCOC(=O)c1c(CNc2ccccc2)n(C)c2cc(Br)c3c(c12)CN(C)CO3` [1.2(44)], the inhibition is 100%.

As to `CCOC(=O)c1c(CSc2ccccc2)n(C)c2cc(Br)c3c(c12)CN(CC)CO3` [1.2(31)], the inhibition worked out at 100%.

Turning to `CCOC(=O)c1c(CN2CCCCC2C)n(Cc2ccccc2)c2cc(Br)c3c(c12)CN(C)CO3` (stereo not drawn) [1.2(13)], the inhibition was 77%.

On to `CCOC(=O)c1c(CSc2ccccc2)n(C)c2cc(-c3cccc(O)c3)c(O)c(CN(C)C)c12` [1.2.1(2)], for which the inhibition was determined as 51%.

On to `CCCCN1COc2c(Br)cc3c(c2C1)c(C(=O)OCC)c(CSc1ccccc1)n3C` [1.2(33)], for which the inhibition came to 95%.

Take `CN1COc2c(Br)cc3c(c2C1)c(C(=O)OC1CCCCC1)c(CNc1ccccc1)n3C` [1.2(48)]: the inhibition worked out at 76%.

`CCOC(=O)c1c(CSc2nc3ccccc3[nH]2)n(-c2ccccc2)c2cc(Br)c3c(c12)CN(C)CO3` [1.2(32)]: the inhibition came to 65%.

On to `CCOC(=O)c1c(CSc2nc3ccccc3s2)n(-c2ccccc2)c2cc(Br)c3c(c12)CN(C)CO3` [1.2(34)], for which the inhibition was less than 50%.

As for `CCOC(=O)c1c(CSc2ccccc2)n(C)c2cc(-c3ccc4[nH]ncc4c3)c(O)c(CN(C)C)c12` [1.1.1(6)], the inhibition worked out at 58%.

Consider `CCOC(=O)c1c(CSc2ccccc2)n(C)c2cc(-c3cncc4ccccc34)c(O)c(CN(C)C)c12` [1.1.1(9)], for which the inhibition was determined as 88%.

As for `CCOC(=O)c1c(CNc2ccccc2)n(C)c2cc(C#N)c3c(c12)CN(C)CO3` [1.2(30)], the inhibition is less than 50%.

For `CCOC(=O)c1c(CNc2ccc(Cl)cc2)n(C)c2cc(Br)c3c(c12)CN(C)CO3` [1.2(45)], the inhibition is 100%.

Consider `CCOC(=O)c1c(CSc2ccccc2)n(C)c2cc(-c3ccncc3)c(O)c(CN(C)C)c12` [1.2.1(6)], for which the inhibition is 100%.

Regarding `COC(=O)c1c(CSc2ccccc2)n(C)c2cc(Br)c3c(c12)CN(C)CO3` [1.2(46)], the inhibition is 100%.

Consider `CCOC(=O)c1c(CSc2ccccc2)n(C)c2cc(-c3cc4cc(OC)ccc4[nH]3)c(O)c(CN(C)C)c12` [1.1.1(5)], for which the inhibition turned out to be 60%.

Take `CCOC(=O)c1c(CN2CCN(C)CC2)n(-c2ccccc2)c2ccc3c(c12)CN(C)CO3` [1.2(1)]: the inhibition was less than 50%.

Take `CCOC(=O)c1c(CN2CCCC2)n(C2CCCCC2)c2cc(Br)c3c(c12)CN(C)CO3` [1.2(10)]: the inhibition amounted to 81%.

Take `CCOC(=O)c1c(CSc2cccs2)n(C)c2cc(Br)c3c(c12)CN(C)CO3` [1.2(47)]: the inhibition amounted to 100%.

Regarding `CCOC(=O)c1c(Cn2ccnc2C)n(C)c2cc(Br)c3c(c12)CN(C)CO3` [1.2(19)], the inhibition worked out at 88%.

The data set is the same for the next values; noted with them: dilution of virus 10^-3.
Turning to `Br.Br.CCOC(=O)c1c(CN2CCN(C)CC2)n(-c2ccccc2)c2ccc3c(c12)CN(C)CO3` [1.2(2)], the “% of inhibition of influenza A virus reproduction” value is less than 50%.

As a reminder, the IC50 is the concentration that inhibits the measured activity by half. The term inhibition denotes the percentage by which the read-out fell short of the control.
